Assay results taken from PubChem BioAssay AID1259407 (Chemical Carcinogenesis Research Information System (CCRIS), 2018).
The source made the active and inactive calls. The rule behind the calls is not given here.

Test system: CCRIS mutagenicity, Ames/micronucleus/aberration tests
Assay: CCRIS mutagenicity studies

**Q.** `O=[N+]([O-])c1ccc(O)c([N+](=O)[O-])c1` was tested. Which mutagenic call (End Point: IN VITRO CHROMOSOMAL ABERRATIONS, Test System: CHO CELLS, Metabolic Activation: NONE) did it give?
**A.** active; positive

**Q.** What about the mutagenic call (End Point: IN VITRO CHROMOSOMAL ABERRATIONS, Test System: HUMAN PERIPHERAL LYMPHOCYTES, Metabolic Activation: NONE) of the same compound?
**A.** active; positive

**Q.** And the mutagenic call (End Point: IN VITRO CHROMOSOMAL ABERRATIONS, Test System: TK6 HUMAN LYMPHOBLASTS, Metabolic Activation: NONE)?
**A.** inactive; negative

**Q.** And the mutagenic call (End Point: In vitro micronucleus, Test System: Mouse lymphoma L5178Y cells, Metabolic Activation: None)?
**A.** active; positive

**Q.** What about the mutagenic call (Test System: AMES SALMONELLA TYPHIMURIUM, Strain/Indicator: TA97, Metabolic Activation: HAMSTER, LIVER, S-9, AROCLOR 1254 (10%), Method: PREINCUBATION) of the same compound?
**A.** inactive; negative

**Q.** And the mutagenic call (Test System: AMES SALMONELLA TYPHIMURIUM, Strain/Indicator: TA97, Metabolic Activation: HAMSTER, LIVER, S-9, AROCLOR 1254 (30%), Method: PREINCUBATION)?
**A.** inactive; negative

**Q.** And the mutagenic call (Test System: AMES SALMONELLA TYPHIMURIUM, Strain/Indicator: TA97, Metabolic Activation: NONE, Method: PREINCUBATION)?
**A.** inactive; negative

**Q.** What about the mutagenic call (Test System: AMES SALMONELLA TYPHIMURIUM, Strain/Indicator: TA97, Metabolic Activation: RAT, LIVER, S-9, AROCLOR 1254 (10%), Method: PREINCUBATION) of the same compound?
**A.** inactive; negative

**Q.** And the mutagenic call (Test System: AMES SALMONELLA TYPHIMURIUM, Strain/Indicator: TA97, Metabolic Activation: RAT, LIVER, S-9, AROCLOR 1254 (30%), Method: PREINCUBATION)?
**A.** inactive; negative

**Q.** And the mutagenic call (Test System: AMES SALMONELLA TYPHIMURIUM, Strain/Indicator: TA98, Metabolic Activation: HAMSTER, LIVER, S-9, AROCLOR 1254 (10%), Method: PREINCUBATION)?
**A.** inactive; negative

**Q.** And the mutagenic call (Test System: AMES SALMONELLA TYPHIMURIUM, Strain/Indicator: TA98, Metabolic Activation: HAMSTER, LIVER, S-9, AROCLOR 1254 (30%), Method: PREINCUBATION)?
**A.** inactive; negative

**Q.** What about the mutagenic call (Test System: AMES SALMONELLA TYPHIMURIUM, Strain/Indicator: TA98, Metabolic Activation: NONE, Method: PREINCUBATION) of the same compound?
**A.** inactive; negative

**Q.** And the mutagenic call (Test System: AMES SALMONELLA TYPHIMURIUM, Strain/Indicator: TA98, Metabolic Activation: RAT, LIVER, S-9, AROCLOR 1254 (10%), Method: PREINCUBATION)?
**A.** inactive; negative

**Q.** And the mutagenic call (Test System: AMES SALMONELLA TYPHIMURIUM, Strain/Indicator: TA98, Metabolic Activation: RAT, LIVER, S-9, AROCLOR 1254 (30%), Method: PREINCUBATION)?
**A.** inactive; negative

**Q.** And the mutagenic call (Test System: AMES SALMONELLA TYPHIMURIUM, Strain/Indicator: TA98, Metabolic Activation: RAT, LIVER, S-9, KANECHLOR 500, Method: PREINCUBATION)?
**A.** inactive; negative

**Q.** And the mutagenic call (Test System: AMES SALMONELLA TYPHIMURIUM, Strain/Indicator: TA98, Metabolic Activation: RAT, LIVER, S-9, PHENOBARBITAL AND BETA-NAPHTHOFLAVONE, Method: PREINCUBATION)?
**A.** inactive; negative

**Q.** What about the mutagenic call (Test System: AMES SALMONELLA TYPHIMURIUM, Strain/Indicator: TA100, Metabolic Activation: HAMSTER, LIVER, S-9, AROCLOR 1254 (10%), Method: PREINCUBATION) of the same compound?
**A.** inactive; negative

**Q.** What about the mutagenic call (Test System: AMES SALMONELLA TYPHIMURIUM, Strain/Indicator: TA100, Metabolic Activation: HAMSTER, LIVER, S-9, AROCLOR 1254 (30%), Method: PREINCUBATION) of the same compound?
**A.** inactive; negative

**Q.** What about the mutagenic call (Test System: AMES SALMONELLA TYPHIMURIUM, Strain/Indicator: TA100, Metabolic Activation: NONE, Method: PREINCUBATION) of the same compound?
**A.** inactive; negative

**Q.** And the mutagenic call (Test System: AMES SALMONELLA TYPHIMURIUM, Strain/Indicator: TA100, Metabolic Activation: RAT, LIVER, S-9, AROCLOR 1254 (10%), Method: PREINCUBATION)?
**A.** inactive; negative

**Q.** What about the mutagenic call (Test System: AMES SALMONELLA TYPHIMURIUM, Strain/Indicator: TA100, Metabolic Activation: RAT, LIVER, S-9, AROCLOR 1254 (30%), Method: PREINCUBATION) of the same compound?
**A.** inactive; negative

**Q.** And the mutagenic call (Test System: AMES SALMONELLA TYPHIMURIUM, Strain/Indicator: TA100, Metabolic Activation: RAT, LIVER, S-9, KANECHLOR 500, Method: PREINCUBATION)?
**A.** inactive; negative

**Q.** What about the mutagenic call (Test System: AMES SALMONELLA TYPHIMURIUM, Strain/Indicator: TA100, Metabolic Activation: RAT, LIVER, S-9, PHENOBARBITAL AND BETA-NAPHTHOFLAVONE, Method: PREINCUBATION) of the same compound?
**A.** inactive; negative

**Q.** And the mutagenic call (Test System: AMES SALMONELLA TYPHIMURIUM, Strain/Indicator: TA102, Metabolic Activation: NONE, Method: PREINCUBATION)?
**A.** inactive; negative

**Q.** And the mutagenic call (Test System: AMES SALMONELLA TYPHIMURIUM, Strain/Indicator: TA102, Metabolic Activation: RAT, LIVER, S-9, PHENOBARBITAL AND BETA-NAPHTHOFLAVONE, Method: PREINCUBATION)?
**A.** inactive; negative

**Q.** What about the mutagenic call (Test System: AMES SALMONELLA TYPHIMURIUM, Strain/Indicator: TA104, Metabolic Activation: NONE, Method: PREINCUBATION) of the same compound?
**A.** inactive; negative

**Q.** And the mutagenic call (Test System: AMES SALMONELLA TYPHIMURIUM, Strain/Indicator: TA104, Metabolic Activation: RAT, LIVER, S-9, PHENOBARBITAL AND BETA-NAPHTHOFLAVONE, Method: PREINCUBATION)?
**A.** inactive; negative

**Q.** And the mutagenic call (Test System: AMES SALMONELLA TYPHIMURIUM, Strain/Indicator: TA1535, Metabolic Activation: HAMSTER, LIVER, S-9, AROCLOR 1254 (10%), Method: PREINCUBATION)?
**A.** inactive; negative

**Q.** And the mutagenic call (Test System: AMES SALMONELLA TYPHIMURIUM, Strain/Indicator: TA1535, Metabolic Activation: HAMSTER, LIVER, S-9, AROCLOR 1254 (30%), Method: PREINCUBATION)?
**A.** inactive; negative

**Q.** And the mutagenic call (Test System: AMES SALMONELLA TYPHIMURIUM, Strain/Indicator: TA1535, Metabolic Activation: RAT, LIVER, S-9, AROCLOR 1254 (10%), Method: PREINCUBATION)?
**A.** inactive; negative

**Q.** And the mutagenic call (Test System: AMES SALMONELLA TYPHIMURIUM, Strain/Indicator: TA1535, Metabolic Activation: RAT, LIVER, S-9, AROCLOR 1254 (30%), Method: PREINCUBATION)?
**A.** inactive; negative

**Q.** What about the mutagenic call (Test System: AMES SALMONELLA TYPHIMURIUM, Strain/Indicator: TA1535, Metabolic Activation: RAT, LIVER, S-9, PHENOBARBITAL AND BETA-NAPHTHOFLAVONE, Method: PREINCUBATION) of the same compound?
**A.** inactive; negative

**Q.** And the mutagenic call (Test System: AMES SALMONELLA TYPHIMURIUM, Strain/Indicator: TA1537, Metabolic Activation: HAMSTER, LIVER, S-9, AROCLOR 1254 (30%), Method: PREINCUBATION)?
**A.** inactive; negative

**Q.** And the mutagenic call (Test System: AMES SALMONELLA TYPHIMURIUM, Strain/Indicator: TA1537, Metabolic Activation: NONE, Method: PREINCUBATION)?
**A.** inactive; negative

**Q.** What about the mutagenic call (Test System: AMES SALMONELLA TYPHIMURIUM, Strain/Indicator: TA1537, Metabolic Activation: RAT, LIVER, S-9, AROCLOR 1254 (30%), Method: PREINCUBATION) of the same compound?
**A.** inactive; negative

**Q.** What about the mutagenic call (Test System: AMES SALMONELLA TYPHIMURIUM, Strain/Indicator: TA1537, Metabolic Activation: RAT, LIVER, S-9, PHENOBARBITAL AND BETA-NAPHTHOFLAVONE, Method: PREINCUBATION) of the same compound?
**A.** inactive; negative

**Q.** What about the mutagenic call (Test System: E. COLI, Strain/Indicator: WP2UVRA/PKM101, Metabolic Activation: NONE, Method: PREINCUBATION) of the same compound?
**A.** inactive; negative

**Q.** What about the mutagenic call (Test System: E. COLI, Strain/Indicator: WP2UVRA/PKM101, Metabolic Activation: RAT, LIVER, S-9, PHENOBARBITAL AND BETA-NAPHTHOFLAVONE, Method: PREINCUBATION) of the same compound?
**A.** inactive; negative

**Q.** And the mutagenic call (Test System: E. COLI, Strain/Indicator: WP2UVRA, Metabolic Activation: NONE, Method: PREINCUBATION)?
**A.** inactive; negative

**Q.** What about the mutagenic call (Test System: E. COLI, Strain/Indicator: WP2UVRA, Metabolic Activation: RAT, LIVER, S-9, PHENOBARBITAL AND BETA-NAPHTHOFLAVONE, Method: PREINCUBATION) of the same compound?
**A.** inactive; negative

**Q.** And the mutagenic call (Test System: Mouse lymphoma, Strain/Indicator: L5178Y (tk+/tk-)/Trifluorothymidine, Metabolic Activation: None, Method: Microtiter)?
**A.** active; positive
